The term IC50 denotes the concentration that inhibits the measured activity by half. Read a low IC50 as greater potency in that assay.

The target of the experiment is T1, Furin [108-574] (Homo sapiens, UniProt P09958).
T1 construct: 108-574
T1 sequence (P09958 108-574): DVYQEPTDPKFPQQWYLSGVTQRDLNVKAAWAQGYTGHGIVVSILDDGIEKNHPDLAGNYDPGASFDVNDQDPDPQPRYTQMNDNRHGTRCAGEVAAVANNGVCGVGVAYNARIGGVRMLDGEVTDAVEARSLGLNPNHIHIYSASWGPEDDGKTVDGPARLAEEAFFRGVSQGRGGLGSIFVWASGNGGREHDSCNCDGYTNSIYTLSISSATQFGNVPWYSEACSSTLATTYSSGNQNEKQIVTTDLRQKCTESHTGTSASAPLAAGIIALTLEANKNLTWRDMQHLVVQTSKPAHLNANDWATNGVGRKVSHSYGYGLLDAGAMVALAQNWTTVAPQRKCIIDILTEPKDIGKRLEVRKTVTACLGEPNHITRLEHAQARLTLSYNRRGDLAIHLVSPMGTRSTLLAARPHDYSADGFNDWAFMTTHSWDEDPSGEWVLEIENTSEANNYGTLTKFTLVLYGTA
Put plainly: Furin Enzyme Assay. The protocol:
Reactions were performed in black 384-well polystyrene low volume plates (Greiner). […] Compounds of the invention were dissolved in DMSO (1.0 mM) and serially diluted 1 to 3 with DMSO through eleven dilutions to provide a final compound concentration range from 0.00017 to 10 μM. 0.05 μL of each concentration was transferred to the corresponding well of an assay plate, and then 5 μL of 40 pM furin enzyme in assay buffer (100 mM HEPES pH7.5, 1 mM CaCl2 and 0.005% Triton X-100) was added using a Multidrop Combi (Thermo) to the compound plates, and mixed by inversion. […] The plates were centrifuged at 500×g for 1 minute and incubated at room temperature for two hours. Enzyme inhibition is then quantified using an Envision instrument (PerkinElmer).
As for `COC(=O)NC(=O)CCN1CCN(c2ncc(Cc3cc(CN4CCC(CNC(C)=O)CC4)cc(-c4cc(Cl)cc(Cl)c4)c3)cn2)CC1` [US11773078, Example 172], the IC50 was 251 pM.
Next, `CNC(=O)NCC1CCN(Cc2cc(Oc3cnc(N4CCN(C)CC4)nc3)nc(-c3cc(Cl)cc(Cl)c3)c2)CC1` [US11773078, Example 70]: 32 pM; `CC(=O)NCC1CCN(Cc2cc(Oc3ccc(N4C[C@H](CN)[C@@H](O)C4)nc3)nc(-c3cc(Cl)cc(Cl)c3)c2)CC1` [US11773078, Example 184]: 251 pM; `CC(=O)NCC1CCN(Cc2cc(Oc3cnc(N4CCN(CCS(=O)(=O)O)CC4)nc3)nc(-c3cc(Cl)cc(Cl)c3)c2)CC1` [US11773078, Example 287]: 2000 pM.
Next, `O=C(O)CCC1CCN(Cc2cc(Oc3cnc(N4CCN(CCO)CC4)nc3)cc(-c3cc(Cl)cc(Cl)c3)c2)CC1` [US11773078, Example 114]: < 158 pM; `CC(=O)NCC1CCN(Cc2cc(Oc3cnc(N4CCN(CCCO)CC4)nc3)cc(-c3cc(Cl)cc(Cl)c3)c2)CC1` [US11773078, Example 113]: < 158 pM.
Next, `NS(=O)(=O)CCC1CCN(Cc2cc(Oc3ccc(N4CCN(CCC(=O)O)CC4)nc3)nc(-c3cc(Cl)cc(Cl)c3)c2)CC1` [US11773078, Example 277]: 32 pM; `CNC(=O)NCC1CCN(Cc2cc(Cc3cnc(N4CCN(CCC(C)S(C)(=O)=O)CC4)nc3)nc(-c3cc(Cl)cc(Cl)c3)c2)CC1` (configuration not stated) [US11773078, Example 220]: 63 pM.
For the compound `CNC(=O)OCC1CCN(Cc2cc(Oc3cnc(N4CCN(C(C)CCC(=O)O)CC4)nc3)nc(-c3cc(Cl)cc(Cl)c3)c2)CC1` (configuration not stated) [US11773078, Example 208], the IC50 turned out to be 13 pM.
Next, `CNC(=O)OCC1CCN(Cc2cc(Oc3ccc(N4CCN(C)CC4)nc3)nc(-c3cc(Cl)cc(Cl)c3)c2)CC1` [US11773078, Example 67]: 1580 pM.
Next, `CN1CCCN(c2ccc(Oc3cc(CN4CC[C@@H]5[C@H](CC4)[C@H]5C(=O)O)cc(-c4cc(Cl)cc(Cl)c4)n3)nn2)CC1` [US11773078, Example 362]: 32 pM; `CNC(=O)OCC1CCN(Cc2cc(Oc3cnc(N4CCN(CCC(=O)O)CC4)nc3)nc(-c3cc(Cl)cc(Cl)c3)c2)CC1` [US11773078, Example 248]: 32 pM.
`CN1CCN(c2ncc(Oc3cc(CN4CC[C@@H]5[C@H](CC4)[C@H]5C(=O)O)cc(-c4cc(Cl)cc(Cl)c4)n3)cn2)CC1` [US11773078, Example 321] showed an IC50 of 794 pM.
Next, `COC(=O)NCC1CCN(Cc2cc(Oc3cnc(N4CC5CCC(C4)N5CCC(=O)O)nc3)nc(-c3cc(Cl)cc(Cl)c3)c2)CC1` [US11773078, Example 56]: 32 pM; `CC(=O)NCC1CCN(Cc2cc(Oc3ccc(N4C[C@H](C)N(CCS(C)(=O)=O)C[C@@H]4C)nc3)nc(-c3cc(Cl)cc(Cl)c3)c2)CC1` [US11773078, Example 183]: 25 pM; `O=C(O)CC1CCN(Cc2cc(Oc3ccc(C4C[C@@H]5C[C@H]4CN5)nc3)nc(-c3cc(Cl)cc(Cl)c3)c2)CC1` (some centres not stated) [US11773078, Example 187]: 1260 pM.
The value for `CC(=O)NCC1CCN(Cc2cc(Oc3cnc(C4CCN(C(C)CC(=O)O)CC4)nc3)nc(-c3cc(Cl)cc(Cl)c3)c2)CC1` (configuration not stated) [US11773078, Example 282] was 200 pM; that for `CC(=O)NCC1CCN(Cc2cc(Cc3cnc(N4CCN(C(C)CCC(=O)O)CC4)nc3)nc(-c3cc(Cl)cc(Cl)c3)c2)CC1` (configuration not stated) [US11773078, Example 215] was 398 pM.
Next, `CC(C)(O)CCC1CCN(Cc2cc(Oc3ccc(N4CCNCC4)nc3)nc(-c3cc(Cl)cc(Cl)c3)c2)CC1` [US11773078, Example 120]: 2000 pM.
In turn, `CNC(=O)NCC1CCN(Cc2cc(Oc3cnc(N4CCN(CCC(C)[S+](C)[O-])CC4)nc3)nc(-c3cc(Cl)cc(Cl)c3)c2)CC1` (configuration not stated) [US11773078, Example 17] yielded an IC50 of 32 pM.
For the compound `CC(=O)NCC1CCN(Cc2cc(Oc3ccc(N4CCN(CCCS(C)(=O)=O)CC4)nc3)nc(-c3cc(Cl)cc(Cl)c3)c2)CC1` [US11773078, Example 251], the IC50 is < 158 pM.
The compound `CC(O)CCN1CCC(c2cnc(Cc3cc(CN4CCC(CC(N)=O)CC4)cc(-c4cc(Cl)cc(Cl)c4)n3)cn2)CC1` (configuration not stated) [US11773078, Example 164] registered an IC50 of 3980 pM.
Next, `CN1C2CCC1CN(c1ncc(Cc3nc(-c4cc(Cl)cc(Cl)c4)cc(CN4CCC(CC(=O)O)CC4)c3F)cn1)C2` [US11773078, Example 378]: 2000 pM; `CN1C2CC1CN(c1ncc(Oc3cc(CN4CCC(CC(=O)O)CC4)cc(-c4cc(Cl)cc(Cl)c4)n3)cn1)C2` [US11773078, Example 228]: 2510 pM; `CN1CCC(c2ncc(Oc3cc(CN4CCC(CC(=O)O)CC4)cc(-c4cc(Cl)cc(Cl)c4)n3)cn2)CC(F)C1` (configuration not stated) [US11773078, Example 147]: 631 pM.
Next, `CC(=O)NCC1CCN(Cc2cc(Oc3cnc(N4CCN(C(=O)CCN)CC4)nc3)cc(-c3cc(Cl)cc(Cl)c3)c2)CC1` [US11773078, Example 170]: 794 pM; `CC(=O)NCC1CCN(Cc2cc(Oc3cnc(N4CCN(CCC5(C(=O)O)CC5)CC4)nc3)cc(-c3cc(Cl)cc(Cl)c3)c2)CC1` [US11773078, Example 173]: 398 pM.
Take `CNC(=O)NCC1CCN(Cc2cc(Oc3cnc(N4CCN(CCO)CC4)nc3)cc(-c3cc(Cl)cc(Cl)c3)c2)CC1` [US11773078, Example 313]: the IC50 is < 158 pM.
Next, `CC(=O)NCC1CCN(Cc2cc(Cc3cnc(N4CC5CCC(C4)N5C)nc3)nc(-c3cc(Cl)cc(Cl)c3)c2)CC1` [US11773078, Example 71]: 200 pM; `C[C@H](CC1CCN(Cc2cc(Oc3ccc(N4CCN(C)CC4)nn3)nc(-c3cc(Cl)cc(Cl)c3)c2)CC1)C(=O)O` [US11773078, Example 364]: 200 pM.
`CC(=O)NCC1CCN(Cc2cc(Cc3ccc(N4CCN(CCC(=O)O)CC4)nn3)nc(-c3cc(Cl)cc(Cl)c3)c2)CC1` [US11773078, Example 169]: half-maximal inhibition (IC50) was put at 32 pM.
The value for `CNC(=O)NCC1CCN(Cc2cc(Oc3ccc(N4CCN(CCCS(N)(=O)=O)CC4)nc3)nc(-c3cc(Cl)cc(Cl)c3)c2)CC1` [US11773078, Example 260] was 200 pM.

Source of the values: BindingDB's records for patent US117730 (Glaxosmithkline Intellectual Property Development, 2023).
